# Measurements published in PMC7157825, “Romo1-Derived Antimicrobial Peptide Is a New Antimicrobial Agent against Multidrug-Resistant Bacteria in a Murine Model of Sepsis” (mBio, 2020).
# Where no end group is shown, it is not given here.
# How the values were obtained:
# [1] = test system: P. aeruginosa (ATCC 27853); type: cell-based, Pseudomonas aeruginosa; settings: ATCC 27853, 1 h, pH 7.4
# Procedure: (§1) The minimum bactericidal concentration was determined as previously described with minor modifications ([29]). Briefly, bacteria (5 × 10^5 CFU/ml) in 10 mM phosphate buffer (pH 7.4) with a 1% volume of TS broth were incubated with various peptide dilutions in a 96-well plate. After incubation for 1 h, samples were placed on TS agar plates and incubated overnight at 37°C. The peptide concentration at which no colonies were identified on the plate was determined to be the MBC.
# S. aureus (ATCC 29213) [2] = type: cell-based, Staphylococcus aureus; settings: ATCC 29213, 1 h, pH 7.4
# Procedure: as §1
# MRSA = assay: Murine model of sepsis caused by MDR bacteria; type: in vivo, mouse; settings: for increase of survival rate: 3 × 10^8 CFU iv, AMPR-11 10 mg/kg iv single dose, imipenem 10 mg/kg ip four times q12h, 15 mice/group
# CRPA = assay: Murine model of sepsis caused by MDR bacteria; type: in vivo, mouse; settings: for increase of survival rate: 8 × 10^7 CFU iv, AMPR-11 10 mg/kg iv single dose, imipenem 10 mg/kg ip four times q12h, 15 mice/group
# CRKP = assay: Murine model of sepsis caused by MDR bacteria; type: in vivo, mouse; settings: 8 × 10^8 CFU iv; AMPR-11 10 mg/kg iv single dose; imipenem 10 mg/kg ip four times q12h; 15 mice/group
# CRAB = assay: Murine model of sepsis caused by MDR bacteria; type: in vivo, mouse; settings: 5 × 10^8 CFU iv; AMPR-11 10 mg/kg iv single dose; imipenem 10 mg/kg ip four times q12h; 15 mice/group
# S. pneumoniae = type: cell-based; settings: 1 h, pH 7.4
# Procedure: as §1
# [3] = test system: Vancomycin-resistant S. aureus; type: cell-based, Staphylococcus aureus; settings: 1 h, pH 7.4
# Procedure: as §1
# [4] = test system: Vancomycin-resistant E. faecium; type: cell-based, Enterococcus faecium; settings: 1 h, pH 7.4
# Procedure: as §1
# [5] = Functional half-life of antimicrobial activity in mouse plasma; type: in vitro ADME; settings: 75% PBS and 25% mouse plasma (EDTA separation); pre-incubation 0, 5, 15, 30, 45, 60, or 75 min, then P. aeruginosa or S. aureus for 1 h; read-out CFU assay (antimicrobial activity)
# [6] = Functional half-life of antimicrobial activity in human serum; type: in vitro ADME; settings: human serum (H4522; Sigma-Aldrich); pre-incubation 0, 5, 15, 30, 45, 60, or 75 min, then P. aeruginosa or S. aureus for 1 h; read-out CFU assay (antimicrobial activity)
# [7] = Effect of blood components on antimicrobial activity; type: in vitro ADME; settings: mouse RBCs, human LDL, human HDL, bovine serum albumin; incubated for indicated times, then bacteria 1 h; CFU assay
# [8] = test system: P. aeruginosa (ATCC 27853); assay: Murine model of sepsis; type: in vivo, mouse
# S. aureus (ATCC 29213) [9] = assay: Murine model of sepsis; type: in vivo, mouse
# [10] = test system: K. pneumoniae (ATCC 13883); assay: Murine model of sepsis; type: in vivo, mouse
# [11] = test system: A. baumannii (ATCC 19606); assay: Murine model of sepsis; type: in vivo, mouse
# Mouse RBCs = type: cell-based
# Procedure: Mouse RBCs were rinsed several times with PBS and centrifuged for 10 min at 2,000 rpm. […] After incubating for 1 h, the cells were pelleted at 1,000 × g for 10 min, and the absorbance of the supernatant was measured at 570 nm. The OD of the control was that of PBS (blank), and 1% Triton X-100 was used as the positive control.
# [12] = CF release from CF-encapsulated large unilamellar vesicles; settings: 1 μg/ml of peptide; fluorescence; compared with melittin, magainin 2, daptomycin
# Procedure: Portions (10 μl) of the lipid mixture of E. coli total lipid extract were dried and rehydrated with 50 mM CF, 100 mM sucrose, and 5 mM HEPES/KOH (pH 7.4). Multilamellar liposomal suspensions were extruded with a 0.1-μm polycarbonate membrane using an Avanti Mini Extruder and purified by a PD-10 column (GE Healthcare, Buckinghamshire, United Kingdom) as previously described. The peptides were added to LUVs, and CF leakage was measured using Fluroskan Ascent FL (Thermo Labsystems, UK) in external buffer (150 mM KCl and 10 mM HEPES/Tris; pH 7). CF leakage was calculated using the following formula: CF leakage (%) = 100 × (F – F0)/(Fmax – F0), where F is the measured fluorescence intensity, F0 is the basal LUV fluorescence intensity, and Fmax is the fluorescence intensity of LUVs treated with 0.2% Triton X-100.
# [13] = Protein lipid overlay (PLO) assay; type: binding; settings: TAMRA-AMPR-11 2 μg/ml, 2 h; 20 pmol of each lipid (PC, PG, PS, PE, PA, PI, lipid A, CL) on nitrocellulose
# Procedure: The experiment was performed as previously described ([53]) with minor modifications. The lipid of PC, PG, PS, PE, PA, PI, lipid A, or CL was diluted and placed on the supported nitrocellulose membrane at 20 pmol and dried at room temperature. The membrane was blocked with Tris-buffered saline-Tween 20 (TBS-Tween 20, 50 mM Tris-HCl, 150 mM NaCl, and 0.1% Tween 20) containing 0.2% fatty acid-free bovine albumin for 1 h. After several washes in TBS, the membrane was incubated with TAMRA-AMPR-11 at 2 μg/ml in blocking solution for 2 h. After several washes with TBS-Tween 20, the fluorescent signal was detected using a fluorescent image scanner (Typhoon FLA 9500).
# GFP-expressing EIEC = assay: GFP efflux / permeabilization of GFP-expressing EIEC; type: cell-based, Enteroinvasive Escherichia coli
# Procedure: Flow cytometric assay to measure the efflux of GFP from GFP-expressing EIEC was performed using a FACS Canto II (Biosciences, CA). […] The number of internalized EIEC in HeLa cells (pcDNA 3.1 or pcDNA 3.1-Flag-Romo1/Control siRNA, Romo1 siRNA-1, or Romo1 siRNA-2) was measured using CFDA-stained EIEC. The data were measured and analyzed with FlowJo software (Tree Star, Inc., Ashland, OR).
# C57BL/6 mouse = assay: Single-dose safety in mice; settings: single dose 100 mg/kg intravenously; tracked for 15 days; compared to PBS
# EIEC = EIEC growth by spectrophotometry; type: cell-based, Enteroinvasive Escherichia coli; settings: 1 μg/ml of Romo1 protein
# [14] = mouse blood after 48 h of infection, 10 mg/kg iv single dose
# [15] = peptides iv 1 h after infection, tail vein blood 1 h after peptide administration
molecule,measurement,setting,value
LMGGIGKTMMQSGGTFGTFMAIGMGIRC [L52-C79],MBC value P. aeruginosa,[1],300 mg/L
same,MBC value S. aureus,S. aureus (ATCC 29213) [2],300 mg/L
KTMMQSGGTFGTFMAIGMGIRC [K58-C79],MBC value P. aeruginosa,[1],130 mg/L
same,MBC value S. aureus,S. aureus (ATCC 29213) [2],150 mg/L
GKTMMQSGGTFGTFMAIGMGIR [G57-R78],MBC value P. aeruginosa,[1],280 mg/L
same,MBC value S. aureus,S. aureus (ATCC 29213) [2],300 mg/L
LMGGIGKTMMQSGGTFGTFMAIGMGIR [L52-R78],MBC value P. aeruginosa,[1],300 mg/L
same,MBC value S. aureus,S. aureus (ATCC 29213) [2],300 mg/L
GGIGKTMMQSGGTFGTFMAIGMGIRC [G54-C79],MBC value P. aeruginosa,[1],300 mg/L
same,MBC value S. aureus,S. aureus (ATCC 29213) [2],300 mg/L
MMQSGGTFGTFMAIGMGIRC [M60-C79],MBC value P. aeruginosa,[1],> 300 mg/L
same,MBC value S. aureus,S. aureus (ATCC 29213) [2],> 300 mg/L
"C[C@@H](O)[C@H]1C(=O)N2C(C(=O)O)=C(SCCN=CN)C[C@H]12 [imipenem, reference compound]",increase of survival rate,MRSA,of little effectiveness
same,increase of survival rate,CRPA,of little effectiveness
same,increase of survival rate,CRKP,of little effectiveness
same,increase of survival rate,CRAB,of little effectiveness
MMQSGGTFGTFMAIGMGIR [M60-R78],MBC value P. aeruginosa,[1],300 mg/L
same,MBC value S. aureus,S. aureus (ATCC 29213) [2],300 mg/L
KTMMQSGGTFGTFMAIGMGI [K58-I77],MBC value P. aeruginosa,[1],300 mg/L
same,MBC value S. aureus,S. aureus (ATCC 29213) [2],300 mg/L
GGIGKTMMQSGGTFGTFMAIGMGIR [G54-R78],MBC value P. aeruginosa,[1],300 mg/L
same,MBC value S. aureus,S. aureus (ATCC 29213) [2],300 mg/L
KTMMQSGGTFGTFMAIGMG [K58-G76],MBC value P. aeruginosa,[1],300 mg/L
same,MBC value S. aureus,S. aureus (ATCC 29213) [2],300 mg/L
IGKTMMQSGGTFGTFMAIGMGIR [I56-R78],MBC value P. aeruginosa,[1],300 mg/L
same,MBC value S. aureus,S. aureus (ATCC 29213) [2],300 mg/L
GKTMMQSGGTFGTFMAIGMGIRC [G57-C79],MBC value P. aeruginosa,[1],250 mg/L
same,MBC value S. aureus,S. aureus (ATCC 29213) [2],280 mg/L
KTMMQSGGTFGTFMAIGM [K58-M75],MBC value P. aeruginosa,[1],300 mg/L
same,MBC value S. aureus,S. aureus (ATCC 29213) [2],300 mg/L
KTMMQSGGTFGTFMAIGMGIR [AMPR-11],MBC value S. pneumoniae,S. pneumoniae,100 mg/L
same,MBC value Vancomycin-resistant S. aureus,[3],120 mg/L
same,MBC value Vancomycin-resistant E. faecium,[4],100 mg/L
same,functional half-life in plasma,[5],approximately 50 min
same,functional half-life in serum,[6],~40 min
same,antimicrobial activity after incubation with blood components,[7],"not inhibited by RBCs, LDL, HDL, or albumin"
same,increase of survival rate,"[8]; C57BL/6N mice, 2 × 10^7 CFU iv, AMPR-11 10 mg/kg iv single dose 1 h after infection, 20 mice/group, 15 days",> 60%
same,bacterial load in blood,[8]; [14],decrease in the bacterial load in blood
same,bacterial load in blood over time,"S. aureus (ATCC 29213) [9]; AMPR-11 administered immediately after infection, tail vein blood, CFU relative to PBS group",rapidly decreased the bacterial load in blood
same,increase of survival rate,"S. aureus (ATCC 29213) [9]; C57BL/6N mice, 1 × 10^8 CFU iv, AMPR-11 10 mg/kg iv single dose 1 h after infection, 20 mice/group, 15 days",> 60%
same,bacterial load in blood,S. aureus (ATCC 29213) [9]; [14],decrease in the bacterial load in blood
same,increase of survival rate,"[10]; C57BL/6N mice, 8 × 10^8 CFU iv, AMPR-11 10 mg/kg iv single dose 1 h after infection, 15 mice/group, 15 days",> 60%
same,bacterial load in blood,[10]; [14],decrease in the bacterial load in blood
same,increase of survival rate,"[11]; C57BL/6N mice, 4 × 10^8 CFU iv, AMPR-11 10 mg/kg iv single dose 1 h after infection, 15 mice/group, 15 days",> 60%
same,bacterial load in blood,[11]; [14],decrease in the bacterial load in blood
same,increase of survival rate,MRSA,> 60%
same,"bacterial load in the liver, spleen, and kidney","MRSA; CFU assay of organ homogenates, 10 mg/kg iv single dose","decrease in bacterial load in the liver, spleen, and kidney"
same,antimicrobial activity in blood (CFU counts) compared with known AMPs,MRSA; [15],"statistically better than that of magainin 2, LL-37, or daptomycin"
same,increase of survival rate,CRPA,> 60%
same,antimicrobial activity in blood (CFU counts) compared with known AMPs,CRPA; [15],"statistically better than that of magainin 2, LL-37, or daptomycin"
same,increase of survival rate,CRKP,> 60%
same,increase of survival rate,CRAB,> 60%
same,hemolytic activity,Mouse RBCs,less cytotoxicity (Fig. 4A) and hemolytic activity (Fig. 4B) than magainin 2 and daptomycin
same,CF release,[12],to a similar extent as melittin
same,lipid preference (binding),[13],specifically bound to lipid A and cardiolipin (CL)
same,time to kill bacteria,"GFP-expressing EIEC; Fig. 2E, TAMRA-AMPR-11 with GFP-expressing EIEC",≤ 10 min
same,"clinical signs (death, weight loss)",C57BL/6 mouse,no severe clinical signs such as death or weight loss
IGKTMMQSGGTFGTFMAIGMGIRC [I56-C79],MBC value P. aeruginosa,[1],300 mg/L
same,MBC value S. aureus,S. aureus (ATCC 29213) [2],300 mg/L
"Romo1: reactive oxygen species modulator 1, chemically synthesized, dissolved in 75% trifluoroethanol (peptide, UniProt P60602 2-79, looked up) Reactive oxygen species …: PVAVGPYGQSQPSCFDRVKMGFVMGCAVGMAAGALFGTFSCLRIGMRGRELMGGIGKTMMQSGGTFGTFMAIGMGIRC",GFP efflux,"GFP-expressing EIEC; 100 nM Romo1, flow cytometry",induced green fluorescent protein (GFP) efflux
same,bacterial growth,EIEC,inhibited EIEC growth
